Measured values reported in patent publication US20260217706A1, “HETEROCYCLIC COMPOUNDS, PREPARATION METHOD THEREFOR AND USE THEREOF” (GUANGZHOU YUFAN NANTU BIOTECHNOLOGIES CO., LTD, priority 2023, published 2026).

target: CBL-B protein (Homo sapiens, UniProt Q13191); experiment: CBL-B binding experiment (Streptavidin-Tb cryptate / Ligand L1 displacement); details: 8 nM CBL-B protein, 25° C., 60 minutes; Ki=Relative IC50/2
In short: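 Compounds in a 10-point DMSO series met 8 nM CBL-B protein in HEPES pH 7.5/NaCl/Triton/TCEP/BSA buffer at 25° C. for 60 min. A further 60 min at room temperature preceded the luminescence read, normalised to no-protein and DMSO wells. Ki was taken as relative IC50 divided by 2.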

Chain of CBL-B protein (Q13191 whole entry): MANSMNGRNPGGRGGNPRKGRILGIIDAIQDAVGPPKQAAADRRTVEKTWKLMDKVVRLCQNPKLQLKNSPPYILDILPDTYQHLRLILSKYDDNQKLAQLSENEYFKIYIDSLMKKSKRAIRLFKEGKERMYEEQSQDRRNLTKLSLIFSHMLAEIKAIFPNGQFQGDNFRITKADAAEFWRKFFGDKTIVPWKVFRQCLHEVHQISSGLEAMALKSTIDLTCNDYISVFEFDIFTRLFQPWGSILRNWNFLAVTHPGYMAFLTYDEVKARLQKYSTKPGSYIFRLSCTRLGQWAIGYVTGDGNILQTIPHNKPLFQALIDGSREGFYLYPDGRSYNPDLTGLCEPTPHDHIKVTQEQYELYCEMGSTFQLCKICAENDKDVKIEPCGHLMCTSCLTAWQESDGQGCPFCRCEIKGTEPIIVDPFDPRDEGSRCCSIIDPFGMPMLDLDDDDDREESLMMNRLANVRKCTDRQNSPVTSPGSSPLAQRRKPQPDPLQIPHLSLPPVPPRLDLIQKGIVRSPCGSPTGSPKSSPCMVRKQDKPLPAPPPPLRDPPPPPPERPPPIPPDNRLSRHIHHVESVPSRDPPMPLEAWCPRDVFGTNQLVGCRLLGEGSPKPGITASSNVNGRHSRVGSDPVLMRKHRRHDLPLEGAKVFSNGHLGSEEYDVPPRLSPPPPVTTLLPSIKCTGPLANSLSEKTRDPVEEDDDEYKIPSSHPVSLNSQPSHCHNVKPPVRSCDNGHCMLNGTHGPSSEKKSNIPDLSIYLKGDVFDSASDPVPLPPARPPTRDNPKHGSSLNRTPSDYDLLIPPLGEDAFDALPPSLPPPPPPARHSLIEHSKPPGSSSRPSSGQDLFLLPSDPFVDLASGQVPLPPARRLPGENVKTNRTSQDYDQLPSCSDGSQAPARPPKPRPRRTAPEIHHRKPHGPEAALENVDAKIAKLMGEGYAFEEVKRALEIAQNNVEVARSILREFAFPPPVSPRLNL

| Compound | Ki [nM] |
| --- | --- |
| CCN(CC)Cc1cc2c(C(F)(F)F)cn(-c3cccc([C@]4(c5nncn5C)C[C@H](OC)C4)c3)c(=O)c2[nH]1 [Compound T118, 2-((diethylamino)methyl)-6-(3-((1r,3r)-3-methoxy-1-(4-methyl-4H-1,2,4-triazol-3-yl)cyclobutyl)phenyl)-4-(trifluoromethyl)-1,6-dihydro-7H-pyrrolo[2,3-c]pyridin-7-one] | < 50 |
| Cn1cnnc1C1(c2cccc(-n3cc(C(F)(F)F)c4cc(CN5CCC[C@]6(CCOC6)C5)[nH]c4c3=O)c2)CCC1 [Compound T123, (S)-2-((2-oxa-7-azaspiro[4.5]decan-7-yl)methyl)-6-(3-(1-(4-methyl-4H-1,2,4-triazol-3-yl)cyclobutyl)phenyl)-4-(trifluoromethyl)-1,6-dihydro-7H-pyrrolo[2,3-c]pyridin-7-one] | < 50 |
| Cn1cnnc1C1(c2cccc(-n3cc(C(F)(F)F)c4cc(CN5CCC[C@@]6(CCOC6)C5)[nH]c4c3=O)c2)CCC1 [Compound T124, (R)-2-((2-oxa-7-azaspiro[4.5]decan-7-yl)methyl)-6-(3-(1-(4-methyl-4H-1,2,4-triazol-3-yl)cyclobutyl)phenyl)-4-(trifluoromethyl)-1,6-dihydro-7H-pyrrolo[2,3-c]pyridin-7-one] | 100 to 500 |
| Cn1cnnc1C1(c2cccc(-n3cc(C(F)(F)F)c4cc(CN5CCC6(CCOC6)CC5)[nH]c4c3=O)c2)CCC1 [Compound T125, 2-((2-oxa-8-azaspiro[4.5]decan-8-yl)methyl)-6-(3-(1-(4-methyl-4H-1,2,4-triazol-3-yl)cyclobutyl)phenyl)-4-(trifluoromethyl)-1,6-dihydro-7H-pyrrolo[2,3-c]pyridin-7-one] | < 50 |

More lines, now with the values ahead:

| Ki [nM] | Compound |
| --- | --- |
| < 50 | CC1CC(c2cc(C(N)=O)cc(-n3cc(C(F)(F)F)c4cc(CN5CCC[C@H](C)C5)[nH]c4c3=O)c2)(c2nncn2C)C1 (stereo partly drawn) [Compound T127, 3-[3-methyl-1-(4-methyl-1,2,4-triazol-3-yl)cyclobutyl]-5-[2-[[(3S)-3-methyl-1-piperidyl]methyl]-7-oxo-4-(trifluoromethyl)-1H-pyrrolo[2,3-c]pyridin-6-yl]benzamide] |
| < 50 | CC1CC(c2cc(C(=O)O)cc(-n3cc(C(F)(F)F)c4cc(CN5CCC[C@H](C)C5)[nH]c4c3=O)c2)(c2nncn2C)C1 (stereo partly drawn) [Compound T128, 3-[3-methyl-1-(4-methyl-1,2,4-triazol-3-yl)cyclobutyl]-5-[2-[[(3S)-3-methyl-1-piperidyl]methyl]-7-oxo-4-(trifluoromethyl)-1H-pyrrolo[2,3-c]pyridin-6-yl]benzoic acid] |
| < 50 | C[C@H]1CCCN(Cc2cc3c(C(F)(F)F)cn(-c4cccc(C5(c6nncn6C)COC5)c4)c(=O)c3[nH]2)C1 [Compound T129, (S)-6-(3-(3-(4-methyl-4H-1,2,4-triazol-3-yl)oxetan-3-yl)phenyl)-2-((3-methylpiperidin-1-yl)methyl)-4-(trifluoromethyl)-1,6-dihydro-7H-pyrrolo[2,3-c]pyridin-7-one] |
| < 50 | C[C@@H]1CN(Cc2cc3c(C(F)(F)F)cn(-c4cccc([C@]5(c6nncn6C)C[C@@H](C)C5)c4)c(=O)c3[nH]2)CCN1C(=O)OC(C)(C)C [Compound T141, tert-butyl (2R)-2-methyl-4-[[6-[3-[3-methyl-1-(4-methyl-1,2,4-triazol-3-yl)cyclobutyl]phenyl]-7-oxo-4-(trifluoromethyl)-1H-pyrrolo[2,3-c]pyridin-2-yl]methyl]piperazine-1-carboxylate] |
| < 50 | C[C@@H]1CN(Cc2cc3c(C(F)(F)F)cn(-c4cccc([C@]5(c6nncn6C)C[C@@H](C)C5)c4)c(=O)c3[nH]2)CCN1 [Compound T142, 6-[3-[3-methyl-1-(4-methyl-1,2,4-triazol-3-yl)cyclobutyl]phenyl]-2-[[(3R)-3-methylpiperazin-1-yl]methyl]-4-(trifluoromethyl)-1H-pyrrolo[2,3-c]pyridin-7-one] |
| < 50 | CO[C@H]1C[C@@](c2cccc(-n3cc(C(F)(F)F)c4cc(CN5CC6CC6C5)[nH]c4c3=O)c2)(c2nncn2C)C1 (stereo partly shown) [Compound T143, 2-((3-azabicyclo[3.1.0]hexan-3-yl)methyl)-6-(3-((1s,3s)-3-methoxy-1-(4-methyl-4H-1,2,4-triazol-3-yl)cyclobutyl)phenyl)-4-(trifluoromethyl)-1,6-dihydro-7H-pyrrolo[2,3-c]pyridin-7-one] |
| < 50 | CO[C@H]1C[C@](c2cccc(-n3cc(C(F)(F)F)c4cc(CN5CC6CC6C5)[nH]c4c3=O)c2)(c2nncn2C)C1 (stereo partly shown) [Compound T144, 2-((3-azabicyclo[3.1.0]hexan-3-yl)methyl)-6-(3-((1r,3r)-3-methoxy-1-(4-methyl-4H-1,2,4-triazol-3-yl)cyclobutyl)phenyl)-4-(trifluoromethyl)-1,6-dihydro-7H-pyrrolo[2,3-c]pyridin-7-one] |
| < 50 | CO[C@H]1C[C@](c2cccc(-n3cc(C(F)(F)F)c4cc(CN5CC6CCC(C6)C5)[nH]c4c3=O)c2)(c2nncn2C)C1 [Compound T146, 2-((3-azabicyclo[3.2.1]octan-3-yl)methyl)-6-(3-((1r,3r)-3-methoxy-1-(4-methyl-4H-1,2,4-triazol-3-yl)cyclobutyl)phenyl)-4-(trifluoromethyl)-1,6-dihydro-7H-pyrrolo[2,3-c]pyridin-7-one] |
| < 50 | CO[C@H]1C[C@](c2cccc(-n3cc(C(F)(F)F)c4cc(CN5CCCC6(CC6)C5)[nH]c4c3=O)c2)(c2nncn2C)C1 [Compound T148, 2-((5-azaspiro[2.5]octan-5-yl)methyl)-6-(3-((1r,3r)-3-methoxy-1-(4-methyl-4H-1,2,4-triazol-3-yl)cyclobutyl)phenyl)-4-(trifluoromethyl)-1,6-dihydro-7H-pyrrolo[2,3-c]pyridin-7-one] |
| < 50 | CCN(Cc1cc2c(C(F)(F)F)cn(-c3cccc([C@]4(c5nncn5C)C[C@H](OC)C4)c3)c(=O)c2[nH]1)CC(C)C [Compound T150, 2-((ethyl(isobutyl)amino)methyl)-6-(3-((1r,3r)-3-methoxy-1-(4-methyl-4H-1,2,4-triazol-3-yl)cyclobutyl)phenyl)-4-(trifluoromethyl)-1,6-dihydro-7H-pyrrolo[2,3-c]pyridin-7-one] |
| < 50 | CO[C@H]1C[C@@](c2cccc(-n3cc(C(F)(F)F)c4cc(CNCCC5CC5)[nH]c4c3=O)c2)(c2nncn2C)C1 [Compound T153, 2-(((2-cyclopropylethyl)amino)methyl)-6-(3-((1s,3s)-3-methoxy-1-(4-methyl-4H-1,2,4-triazol-3-yl)cyclobutyl)phenyl)-4-(trifluoromethyl)-1,6-dihydro-7H-pyrrolo[2,3-c]pyridin-7-one] |
| < 50 | CO[C@H]1C[C@@](c2cccc(-n3cc(C(F)(F)F)c4cc(CN5CCCC(C(F)F)C5)[nH]c4c3=O)c2)(c2nncn2C)C1 (stereo partly shown) [Compound T155, 2-((3-(difluoromethyl)piperidin-1-yl)methyl)-6-(3-((1s,3s)-3-methoxy-1-(4-methyl-4H-1,2,4-triazol-3-yl)cyclobutyl)phenyl)-4-(trifluoromethyl)-1,6-dihydro-7H-pyrrolo[2,3-c]pyridin-7-one] |
| < 50 | CCN(Cc1cc2c(C(F)(F)F)cn(-c3cccc([C@]4(c5nncn5C)C[C@H](OC)C4)c3)c(=O)c2[nH]1)C(C)C [Compound T193] |

test system: anti-CD3 activated human PBMCs; experiment: Effect of compounds on the level of IL-2 secretion by anti-CD3 activated human PBMCs (IL-2 ELISA); format: cell-based; details: compound concentration at which fold change in IL-2 = 5; hPBMCs, CD3 antibody 2 μg/mL, 48 h, compound from 3 μM
Protocol: 2. Inoculate the resuspended cells into a 96-well cell culture plate at 200 ul/well of cell suspension, and incubate in a 37° C. cell incubator for 1 h;
3. Adjust the compound concentration with DMSO, starting at a final concentration of 3 μM, and perform a 3-fold dilution sequentially for 10 concentration gradients, with an additional DMSO control well set up; and
4. Adjust the CD3 antibody to an appropriate concentration to achieve a final concentration of 2 μg/mL, mix thoroughly, and incubate in a 37° C. cell incubator for 48h.
5. After 48 h, centrifuge at 1500 rpm for 5 min to collect the supernatant of the culture medium for the human IL-2 ELISA test.
The OD values obtained from the ELISA test are converted into the fold change (FC) in IL-2 concentration. […] The EC50 is calculated using GraphPad Prism. When the fold change=5, the corresponding compound concentration is CFC=5 (in nM).

| Compound | IL-2 CFC=5/nM [nM] |
| --- | --- |
| C[C@H]1CCCN(Cc2cc3c(C4CC4)cn(-c4cccc([C@]5(c6nncn6C)C[C@@H](C)C5)c4)c(=O)c3[nH]2)C1 [Compound T011, 4-cyclopropyl-6-(3-((1s,3R)-3-methyl-1-(4-methyl-4H-1,2,4-triazol-3-yl)cyclobutyl)phenyl)-2-(((S)-3-methylpiperidin-1-yl)methyl)-1,6-dihydro-7H-pyrrolo[2,3-c]pyridin-7-one] | <500 |
| C[C@H]1CCCN(Cc2cc3c(C4CC4)cn(-c4cccc([C@]5(c6nncn6C)C[C@H](C)C5)c4)c(=O)c3[nH]2)C1 [Compound T014, 4-cyclopropyl-6-(3-((1r,3S)-3-methyl-1-(4-methyl-4H-1,2,4-triazol-3-yl)cyclobutyl)phenyl)-2-(((S)-3-methylpiperidin-1-yl)methyl)-1,6-dihydro-7H-pyrrolo[2,3-c]pyridin-7-one] | <500 |
| Cn1cnnc1C1(c2cccc(-n3cc(C(F)(F)F)c4cc(CN5CC[C@H](F)C5)[nH]c4c3=O)c2)CCC1 [Compound T020, 2-[[(3S)-3-fluoropyrrolidin-1-yl]methyl]-6-[3-[1-(4-methyl-1,2,4-triazol-3-yl)cyclobutyl]phenyl]-4-(trifluoromethyl)-1H-pyrrolo[2,3-c]pyridin-7-one] | <500 |
| Cn1cnnc1C1(c2cccc(-n3cc(C(F)(F)F)c4cc(CN5CC[C@@H](F)C5)[nH]c4c3=O)c2)CCC1 [Compound T021, 2-[[(3R)-3-fluoropyrrolidin-1-yl]methyl]-6-[3-[1-(4-methyl-1,2,4-triazol-3-yl)cyclobutyl]phenyl]-4-(trifluoromethyl)-1H-pyrrolo[2,3-c]pyridin-7-one] | <500 |
| C[C@H]1CCCN(Cc2cc3c(C(F)(F)F)cn(-c4cccc([C@]5(c6nncn6C)C[C@H](C#N)C5)c4)c(=O)c3[nH]2)C1 [Compound T136, (1S,3r)-3-(4-methyl-4H-1,2,4-triazol-3-yl)-3-(3-(2-(((S)-3-methylpiperidin-1-yl)methyl)-7-oxo-4-(trifluoromethyl)-1,7-dihydro-6H-pyrrolo[2,3-c]pyridin-6-yl)phenyl)cyclobutane-1-carbonitrile] | <500 |
